Results: patent US20260306502A1, “MITOCHONDRIAL UNCOUPLERS FOR TREATMENT OF METABOLIC DISEASES AND CANCER” (Mito Biopharma, LLC, priority 2022, published 2026)
Where two headings read alike, the source gives them in different places.

Key:
[1] = PO pharmacokinetic study, oral exposure (Example B3); format: in vivo; conditions: blood, po; 10 mg/kg gavage, 24 hrs
Protocol: The blood concentration of the compound was then determined at 0 (pre-dosing), 5 min, 15 min, 30 min, 1 hr, 2 hr, 4 hr, 8 hr, 24 hr time points by LC-MS/MS analysis (See Tables 1 and 2, vide supra).

[2] = tested on: high-fat diet (HFD)-induced diabetic mouse model; assay: Efficacy in high-fat diet (HFD)-induced diabetic/fatty liver mouse model; format: in vivo; conditions: Mus musculus; HFD model, oral daily gavage; read-out: Efficacious dosage to reduce blood glucose in mouse models, oral daily gavage
Protocol: For HFD induced diabetic mouse model, C57Bl6 mice (male, n=6) were induced to obese and diabetic conditions by feeding high-fat diet (HFD, 60% fat calories, Research Diet, Inc. New Brunswick, NJ) for 3-4 months. […] During the 3-week period, the mice continued feeding HFD. […] The blood glucose levels were measured after an overnight fast, plasma insulin levels were tested after 5-6 hours fast, and the glycated HbA1c levels were determined in whole blood samples.
FIG. 15C and FIG. 15D show liver sections from mice fed HFD following 3 weeks of treatment with Compounds 25 and 64, respectively (P.O. dosing of 5 mg/kg, by daily gavage).
Experiments were similarly performed with other compounds, in either high-fat diet induced diabetes and fatty liver models, or in db/db mouse model, or in both, by daily oral gavage administration with low dosages.

C2C12 = assay: Cell growth inhibition assay (SRB), C2C12; format: cell-based; conditions: Mus musculus, C2C12, 48 h
Protocol: Cell growth inhibition assays were performed using a protocol standardized by National Cancer Institute (NCI) for evaluating anti-cancer drugs. Various mammalian cell lines were used for the assays. Briefly, the cells were inoculated into 96 well microtiter plates. After cell inoculation, the microtiter plates were incubated for cell growth for 24 h prior to the addition of compounds. After 24 h, two plates of each cell line were fixed in situ with TCA, to represent a measurement of the cell population for each cell line at the time of compound addition (Tz). Test compounds were solubilized in dimethyl sulfoxide. At the time of test compound addition, five 10-fold or ½ log serial dilutions were made to provide a total of five test compound concentrations plus control. Aliquots of 100 μl of these different test compound dilutions were added to the appropriate microtiter wells already containing 100 μl of the medium, resulting in the required final test compound concentrations. […] The bound stain was subsequently solubilized with 10 mM trizma base, and the absorbance was read on an automated plate reader at a wavelength of 515 nm. Using the seven absorbance measurements [time zero, (Tz), control growth, (C), and test growth in the presence of a compound at the five concentration levels (Ti)], the percentage growth was calculated at each of the test compound concentrations levels.

C2C12 cells = assay: Mitochondrial uncoupling activity by oxygen consumption rate (OCR) assay, Seahorse, in presence of oligomycin; format: cell-based, mouse; conditions: Mus musculus, C2C12; in the presence of oligomycin 2.5 μM; read-out: COCR-min: minimal concentration increasing OCR in the presence of oligomycin
Method in brief: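 Mouse C2C12 myoblasts grown in 10% FBS medium had OCR measured on Seahorse XF96/XF24 sequentially: basal, after 2.5 μM oligomycin (final), then after compound at varying concentrations. Rotenone/antimycin A confirmed mitochondrial origin. COCR-min is the minimal compound concentration inducing OCR in the presence of oligomycin.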

[3] = tested on: cultured mammalian cells, the NIH-3T3 cells, C2C12 cells, and other mammalian cell lines; assay: Mitochondrial membrane potential (MMP) assay, TMRE (or DilC1(5)) staining, related to OCR induction; format: cell-based; conditions: ratio of concentration leading to 10% MMP retention (90% MMP loss, TMRE) to minimal concentration leading to OCR increase
Protocol: Mitochondrial membrane potential assay was performed using the standard TMRE (tetramethylrhodamine ethyl ester) staining method with cultured mammalian cells, the NIH-3T3 cells, C2C12 cells, and other mammalian cell lines. Cells were seeded in 6-well plates and cultured in DMEM medium supplemented with 10% fetal bovine serum and 2 mM glutamine. Cells were allowed to grow to the logarithmic growth phase prior to experiments. The cells were treated with each individual compound at various concentrations for two hours, followed by staining with TMRE at a final concentration of 100 nM for 15 minutes. The cells were then washed once with PBS, and examined under fluorescence microscopy. Cells treated with various concentrations of niclosamide ethanolamine were used as a positive control.
In some examples, mitochondrial membrane potential was measured with DilC1(5) staining. Briefly, DilC1(5) was added to the cells to 50 nM final concentration and the cells were incubated at 37° C., 5% CO2, for 15 to 30 minutes. Cells were washed once by adding 2 mL of warm phosphate-buffered saline (PBS). Mitochondrial staining was determined by fluorescence microscopy with 633 nm excitation using standard filters for far-red emission.
Using the ratio between C10% TMRE (the concentration at which 10% MMP remains, i.e. 90% MMP is lost) and Cmin-OCR (the concentration at which minimal OCR induction is observed), we categorized the MMP-retaining uncouplers into two groups.

HepG2 = assay: Cell growth inhibition assay (SRB), HepG2; format: cell-based; conditions: Homo sapiens, HepG2, 48 h
Protocol: Cell growth inhibition assays were performed using a protocol standardized by National Cancer Institute (NCI) for evaluating anti-cancer drugs. Various mammalian cell lines were used for the assays. Briefly, the cells were inoculated into 96 well microtiter plates. After cell inoculation, the microtiter plates were incubated for cell growth for 24 h prior to the addition of compounds. After 24 h, two plates of each cell line were fixed in situ with TCA, to represent a measurement of the cell population for each cell line at the time of compound addition (Tz). Test compounds were solubilized in dimethyl sulfoxide. At the time of test compound addition, five 10-fold or ½ log serial dilutions were made to provide a total of five test compound concentrations plus control. Aliquots of 100 μl of these different test compound dilutions were added to the appropriate microtiter wells already containing 100 μl of the medium, resulting in the required final test compound concentrations. Following test compound addition, the plates were incubated for an additional 48 h. The assay was terminated by the addition of cold TCA. Cells were fixed in situ with 50 μl of cold 50% (w/v) TCA (final concentration, 10% TCA), washed five times with tap water and air-dried. Sulforhodamine B (SRB) solution (100 μl) at 0.4% (w/v) in 1% acetic acid was added to each well, and plates were incubated for 10 minutes at room temperature. After staining, the unbound dye was removed by washing five times with 1% acetic acid and the plates were air-dried. The bound stain was subsequently solubilized with 10 mM trizma base, and the absorbance was read on an automated plate reader at a wavelength of 515 nm. Using the seven absorbance measurements [time zero, (Tz), control growth, (C), and test growth in the presence of a compound at the five concentration levels (Ti)], the percentage growth was calculated at each of the test compound concentrations levels.

[4] = in words, cited from earlier work
[5] = Rat pharmacokinetics study, oral gavage (Example B8); format: in vivo
Protocol: Pharmacokinetics of the testing compounds was determined in male SD rats, n=3. Briefly, each compound was prepared in 0.5% CMC-Na and 1% Tween in water to yield a homogeneous suspension at 1 mg/ml, and then administrated to 10 mg/kg via oral gavage. The animals were fasted overnight before dosing and fed for 4 hour post dosing with free access to water for all time. Blood samples were collected at pre-dose, 0.083, 0.25, 0.5, 1, 2, 4, 8 and 24 hours, into K2EDTA-coated tube via tail vein for serial sampling and cardiac puncture for terminal sampling. […] Plasma samples were stored at approximately −80° C. until analysis. The compound in the plasma samples were then extracted and concentrations determined by LC-MS/MS.

[6] = Metabolic stability assay in rat liver microsomes; format: in vitro ADME; conditions: for half-life at 1 µM: rat, liver microsomes
Protocol: The metabolic stability of the compounds was evaluated in incubation with rat liver microsomes.

AUC at 24 h [1] [ng·h/mL]	Compound	GI50 (C2C12) [µM]	minimal effective concentration (C2C12 cells) [µM]	C10%TMRE/Cmin-OCR [3]	further results
60000 to 120000	C[C@@H]1CN(Cc2cc(Cl)cc(C(=O)Nc3nc4ccc(C(F)(F)F)cc4s3)c2O)C[C@H](C)O1.Cl [Compound 11, 5-chloro-3-((cis-2,6-dimethylmorpholino)methyl)-2-hydroxy-N-(6-(trifluoromethyl)benzo[d]thiazol-2-yl)benzamide]	5 to 20	< 5		minimal effective dose [2]: 1 mg/kg
30000 to 60000	COCCOCc1cc(C(F)(F)F)cc2sc(NC(=O)c3cc(Cl)cc(C)c3O)nc12 [Compound 13, 5-chloro-2-hydroxy-N-(4-((2-methoxyethoxy)methyl)-6-(trifluoromethyl)benzo[d]thiazol-2-yl)-3-methylbenzamide]	5 to 20	< 5	~13	
30000 to 60000	COCc1cc(C(F)(F)F)cc2sc(NC(=O)c3cc(Cl)cc(C)c3O)nc12 [Compound 68, 5-chloro-2-hydroxy-N-(4-(methoxymethyl)-6-(trifluoromethyl)benzo[d]thiazol-2-yl)-3-methylbenzamide]		< 5		GI50 (HepG2): < 5 µM
	O=[N+]([O-])c1ccc(O)c([N+](=O)[O-])c1 [DNP, 2,4-dinitrophenol]			≤ 3	half-life [4]: days to weeks; toxicity in humans ([4]; human obesity treatment): exhibited high levels of toxicity and had a narrow therapeutic window
	CN(C)CCc1cc(Cl)cc(C(=O)Nc2nc3ccc(C(F)(F)F)cc3s2)c1O [Compound 2 of U.S. Pat. No. 10,227,315]				Rat Oral PK (in vivo) half-life (T1/2, hour) ([5]; 10 mg/kg oral gavage): 66.9 h; half-life ([5]; plasma, 10 mg/kg, oral): 66.9 h; Metabolic stability half-life (T1/2, min, rat liver microsome) ([6]; 1 μM compound, 0.5 mg/ml microsomal protein, 37° C., 1 µM): 2,132 min; half-life at 1 µM ([6]; 1 μM compound, 0.5 mg/ml microsomal protein, 37° C., read-out: Metabolic stability half-life (T1/2, min, rat liver microsome)): 35.5 h; half-life at 1 µM ([6]; rat liver microsomes, read-out: rat microsome metabolic stability, half-life): 35.5 h
